Data: patent publication US11331328B2, “Compositions and methods for inhibiting antiapoptotic Bcl-2 proteins as anti-aging agents” (priority 2014, dated 2022)

Key:
[1] = system: senescent WI38 cells induced by expression of oncogenic Ras (Ras-SC); experiment: Cell viability, LD50 in oncogenic Ras-induced senescent WI-38 cells; type: cell-based, human; conditions: Table 2
Procedure: (§1) Human WI-38 fibroblasts (WI38 cells, #CCL-75™), human IMR-90 fibroblasts (IMR90 cells, #CCL-186™), human renal epithelial cells (REC cells, #PCS-400-012™) were obtained from ACTT (Manassas, Va., USA). Mouse embryonic fibroblasts (MEF) were isolated from mouse embryos as described^1. All cells were cultured in a complete medium (CM) (Dulbecco's Modified Eagle Medium supplemented with 10% fetal bovine serum [FBS], 100 U/ml penicillin, and 100 μg/ml streptomycin [all from Atlanta Biologicals, Norcross, Ga., and USA]) in a humidified incubator at 37° C. and 5% CO2. Low passages of WI-38 cells (<25), IMR-90 (<25), REC cells (<25) and MEF (<3) were used as non-senescent controls or for induction of senescence to avoid replicative senescence. To induce replicative senescence, WI-38 cells were subcultivated until cell division ceased after about 38 passages or 60 population doublings (FIG. 5)^2. […]
Flow cytometry: Non-senescent and senescent cells were seeded into wells of 24- or 48-well at about 70% of confluence. […] Viable cells (PI^− cells) were numerated by flow cytometry at a constant flow rate and calculated as a percentage of control cells treated with vehicle using the formula: percentage of control=(Ndrug/NC)×100, where Ndrug and NC represent the absolute number of PI^− viable cells of drug-treated and vehicle-treated cells, respectively. […]

bone marrow HSCs = experiment: Single HSC culture clonogenic activity in vitro; type: cell-based, mouse; conditions: 1.25 μM ABT263
Procedure: Freshly prepared medium was added every 3 days, Two weeks later, the numbers of cells produced by each HSC were counted.

[2] = system: senescent HSCs induced by TBI
Procedure: The femora and tibiae were harvested from mice immediately after they were euthanized. BM cells were flushed from the bones into HBSS containing 2% FCS using a 21-gauge needle and syringe. […] The labeled mature lymphoid and myeloid cells were depleted twice by incubation with goat anti-rat IgG paramagnetic beads (Dynal Inc, Lake Success, N.Y., USA) at a bead:cell ratio of approximately 4:1. Cells binding the paramagnetic beads were removed with a magnetic field. The negatively isolated Lin^− cells were washed twice with 2% FCS/HBSS and resuspended in complete medium (RPMI1640 medium supplemented with 10% FCS, 2 mM L-glutamine, 10 μM HEPES buffer, and 100 U/ml penicillin and streptomycin) at 1×10^6/ml. HSCs (CD150^+CD48^− LSK^+ cells) were sorted by a BD FACSAria II cell sorter (BD Biosciences, San Jose, Calif.) after Lin^− cells were preincubated with anti-CD16/32 antibody to block the Fcγ receptors and then stained with anti-Sca1-PE, c-Kit-APC-Cy7, CD150-APC and CD48-Pacific blue antibodies. Dead cells were excluded by gating out the cells that stained positive with PI.
Feeder cell stromal layers were prepared by seeding 10^3/well FBMD-1 stromal cells in each well of flat-bottom 96-well plates (Falcon, Lincoln Park, N.J.). One week later, BM-MNCs resuspended in CAFC medium (Iscove's MDM supplemented with 20% horse serum, 10^−5 M hydrocortisone, 10^−5 M 2-mercaptoethanol, 100 U/ml penicillin, and 100 μg/ml streptomycin) after various treatments described above were overlaid on these stromal layers in 6 dilutions at 3-fold intervals. Twenty wells were plated for each dilution to allow limiting dilution analysis of the precursor cells forming hematopoietic cell clones under the stromal layer. Cultures were fed weekly by changing one-half of the media. The frequencies of CAFC were determined on days 14 and 35. Wells were scored positive if at least one phase-dark hematopoietic clone (containing 5 or more cells) was seen. The frequency of CAFC was then calculated by using Poisson statistics as described previously^9, 10. […]

caspase 3, caspase 8 = experiment: Western blot analysis of caspase activation; type: cell-based, human; conditions: IR-SC WI-38; 1.25 μM ABT263, 24 h
Procedure: Cells (1×10^6) were lysed in 100 μl lysis buffer (20 mM Tris-HCl, pH 7.4, 150 mM NaCl, 1 mM EDTA. 1 mM EGTA, 10% glycerol, 1.0% NP-40, 0.1 M NaF, 1 mM DTT, 1 mM PMSF, 1 mM NaVO4, 2 μg/ml leupeptin and aprotinin) for 30 min on ice, and cell extracts were sonicated 3 times (5 secs each time) on ice with a 25-sec interval in between using a Sonic Dismembrator Ultrasonic Convertor (Model F60, from Fisher, Pittsburgh, Pa., USA). The protein concentrations were quantified using the Bio-Rad Dc protein assay kit (Bio-Rad Laboratories, Hercules, Calif., USA). Equal amounts of protein (25-50 μg/lane) from each extract was resolved on 12% SDS-PAGE gels. Proteins were blotted to NOVEX NC membranes (Life Technologies, Carlsbad, Calif., USA). The membranes were blocked with TBS-T (5% nonfat milk in 25 mM Tris-HCl, pH 7.4. 3 mM KCl, 140 mM NaCl, and 0.05% Tween) and subsequently probed with primary antibodies at a predetermined optimal concentration as indicated in Supplementary Table 3 overnight at 4° C. or for 1 h at room temperature. […] After three washes with TBS-T, the blots were detected using the ECL Western Blotting Detection Reagents (Cat #WBKLS0100) (EMD MILLIPORE. Newmarket, Suffolk, UK) and recorded by exposure of the blots to X-ray film (Pierce Biotech, Rockford, Ill., USA).

[3] = system: human renal epithelial cells (REC); experiment: Cell viability, IR-SC vs NC, renal epithelial cells; type: cell-based; conditions: increasing concentrations, 72 h
Procedure: as §1
(§2) Flow cytometry: Non-senescent and senescent cells were seeded into wells of 24- or 48-well at about 70% of confluence. […] Viable cells (PI^− cells) were numerated by flow cytometry at a constant flow rate and calculated as a percentage of control cells treated with vehicle using the formula: percentage of control=(Ndrug/NC)×100, where Ndrug and NC represent the absolute number of PI^− viable cells of drug-treated and vehicle-treated cells, respectively.

[4] = system: mouse embryonic fibroblasts (MEF); experiment: Cell viability, IR-SC vs NC, mouse embryonic fibroblasts; type: cell-based; conditions: increasing concentrations, 72 h
Procedure: as §1, §2

CC1(C)CCC(c2ccc(Cl)cc2)=C(CN2CCN(c3ccc(C(=O)NS(=O)(=O)c4ccc(N[C@H](CCN5CCOCC5)CSc5ccccc5)c(S(=O)(=O)C(F)(F)F)c4)cc3)CC2)C1 [ABT263, navitoclax]
LD50 [1]: 0.62 µM | clonogenicity of BM HSCs in vitro (bone marrow HSCs; HSCs from control unirradiated mice): had little effect on the clonogenicity of BM HSCs from control unirradiated mice | clonogenicity of BM HSCs in vitro (bone marrow HSCs; HSCs from irradiated mice): markedly reduced the clonogenicity of BM HSCs from irradiated mice | HSC myeloid skewing, quiescence and persistent DNA damage ([2]; TBI mice, Ki67, γH2AX, BMT): attenuated IR-induced HSC myeloid skewing and disruption of HSC quiescence, and reduced HSCs with persistent DNA damage | BM HSC and HPC numbers ([2]; after ABT263 treatment of CTL or TBI mice): did not quantitatively reduce BM HSCs or hematopoietic progenitor cells (HPCs) | clonogenicity (CAFC) and long-term engraftment ability of HSCs ([2]; day-35 CAFC, competitive and serial BMT): significantly improved the clonogenicity and long-term engraftment ability of HSCs | caspase activation (caspase 3, caspase 8): SCs activated caspase 3, but not caspase 8 | viable cells, IR-SC vs NC [3]: kills IR-induced senescent cells (IR-SC) but not non-senescent cells (NC) | viable cells, IR-SC vs NC [4]: kills IR-induced senescent cells (IR-SC) but not non-senescent cells (NC)
